Results reported in publication PMC9967275, “Screening the Pathogen Box to Discover and Characterize New Cruzain and TbrCatL Inhibitors” (Pathogens, 2023).

Key:
[1] = molecular target: cruzain (Trypanosoma cruzi, UniProt P25779); assay: biochemical; conditions: for Cruzain 0’ Inhibition / Cruzain 10’ Inhibition: sheet "Screening results"
Outline: (§1)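 Recombinant enzymes assayed by Z-Phe-Arg-AMC cleavage at 25 °C, fluorescence 340/440 nm over 5–7 min, with 10 min or no enzyme–compound preincubation.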

[2] = molecular target: T1, TbrCatL (Trypanosoma brucei rhodesiense, UniProt Q95PM0); assay: TbrCatL enzymatic inhibition assay (cleavage of fluorogenic substrate Z-FR-AMC); format: biochemical; conditions: for TbrCatL 0’ Inhibition / TbrCatL 10’ Inhibition: sheet "Screening results"
T1 construct: Conor Caffrey (University of California San Diego)
Outline: as §1

[3] = 0’ (pre-incubation time), Pathogen Box screening results
[4] = 10’ (pre-incubation time), Pathogen Box screening results
[5] = 0’ (no pre-incubation), sheet Screening results
[6] = 10’ (pre-incubation), sheet Screening results
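Further: at 5 µM compound concentration.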

Chain of cruzain (P25779 123-337 limits assumed): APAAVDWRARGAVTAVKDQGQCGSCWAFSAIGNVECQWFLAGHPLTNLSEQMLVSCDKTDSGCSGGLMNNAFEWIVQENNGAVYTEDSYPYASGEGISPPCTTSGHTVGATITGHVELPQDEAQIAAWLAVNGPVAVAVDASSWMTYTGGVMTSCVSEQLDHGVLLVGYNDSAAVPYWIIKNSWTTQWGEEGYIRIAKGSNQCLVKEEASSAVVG
T1 sequence (Q95PM0 entry or part of it): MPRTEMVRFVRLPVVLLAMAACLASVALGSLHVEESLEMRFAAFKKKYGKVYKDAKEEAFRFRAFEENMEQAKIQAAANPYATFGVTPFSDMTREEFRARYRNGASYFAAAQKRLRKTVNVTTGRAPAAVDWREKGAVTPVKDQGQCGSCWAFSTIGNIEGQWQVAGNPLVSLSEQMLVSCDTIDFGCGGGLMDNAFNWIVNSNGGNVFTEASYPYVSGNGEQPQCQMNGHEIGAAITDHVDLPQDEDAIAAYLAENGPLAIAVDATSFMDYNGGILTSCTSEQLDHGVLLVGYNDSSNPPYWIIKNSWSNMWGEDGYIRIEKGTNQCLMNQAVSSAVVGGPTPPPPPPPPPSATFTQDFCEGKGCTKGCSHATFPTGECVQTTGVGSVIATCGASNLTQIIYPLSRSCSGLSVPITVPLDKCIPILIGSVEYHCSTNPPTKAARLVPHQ

| SMILES | Cruzain Inhibition 0’ [1, 5] | Cruzain Inhibition 10’ [1, 6] | TbrCatL Inhibition 0’ [2, 5] | TbrCatL Inhibition 10’ [2, 6] | Cruzain 0’ Inhibition ([1]; 0’ (pre-incubation time)) | Cruzain 10’ Inhibition ([1]; 10’ (pre-incubation time)) | TbrCatL 0’ Inhibition ([2]; 0’ (pre-incubation time)) | TbrCatL 10’ Inhibition ([2]; 10’ (pre-incubation time)) | further results |
| --- | --- | --- | --- | --- | --- | --- | --- | --- | --- |
| CCCCCCCCCCCCCCCCOP(=O)([O-])OCC[N+](C)(C)C [MMV688990] | – | – | – | – | – | – | – | – | Cruzain Inhibition 0’ [1, 3]: -0.1%; Cruzain Inhibition 10’ [1, 4]: 0.6%; TbrCatL Inhibition 0’ [2, 3]: -2.4%; TbrCatL Inhibition 10’ [2, 4]: -12% |
| CC(=O)Oc1ccccc1C(=O)Nc1ncc([N+](=O)[O-])s1 [MMV688991] | 8% | 4% | 10% | 3.7% | – | – | – | – | – |
| CNC1C(OC2C(OC3C(O)C(O)C(N=C(N)N)C(O)C3N=C(N)N)OC(C)C2(O)C=O)OC(CO)C(O)C1O (centres unmarked) [MMV688994] | -4% | -2.3% | 1.1% | 1.5% | – | – | – | – | – |
| C[C@@H]1[C@H](O)[C@@H](C)/C=C/C=C/C=C/C=C/C=C/C=C/C=C/[C@H](O[C@@H]2O[C@H](C)[C@@H](O)[C@H](N)[C@@H]2O)C[C@@H]2O[C@](O)(C[C@@H](O)C[C@@H](O)[C@H](O)CC[C@@H](O)C[C@@H](O)CC(=O)O[C@H]1C)C[C@H](O)[C@H]2C(=O)O [MMV689000] | – | – | – | – | 10% | 10% | 11% | 9% | – |
| Cc1ccc(S(=O)(=O)Nc2ccc(CN3CCN(C(=O)c4cccc(C#N)c4)CC3)cc2)cc1 [MMV689028] | -0.6% | 8% | -0.6% | -0.3% | – | – | – | – | – |
| COc1ccc(S(=O)(=O)Nc2ccc(CN3CCN(C(=O)c4cccc(C#N)c4)CC3)cc2)cc1 [MMV689029] | – | – | – | – | 2.5% | 5.4% | 0.7% | 1.2% | – |
| Clc1ccc(CN2CCN(C3=NCCN3)CC2)cc1Cl [MMV689060] | -3% | -0.1% | -5% | 2% | – | – | – | – | – |
| CC(=O)Nc1ccc(-c2noc(CC3CCCN(Cc4cccc(F)c4C)C3)n2)cc1 (centres unmarked) [MMV689061] | 1.2% | 3.6% | 0% | 0.8% | – | – | – | – | – |
| FC(F)(F)c1ccc(N(c2cccnc2)C2CCN(c3ccc(C(F)(F)F)cn3)CC2)cc1 [MMV689243] | – | – | – | – | 2.3% | -3% | -9% | -5% | – |
| O=C([C@@H](c1ccc(Cl)cc1)c1cccnc1)N1CCN(c2ccc(C(F)(F)F)cc2)CC1 [MMV689244] | – | – | – | – | 2.7% | -3.2% | 6.4% | -2.8% | – |
| Nc1ncnc2c1ncn2C[C@@H](O)[C@@H](O)C(=O)O [MMV689255] | 18% | 2% | 3.4% | -1.3% | – | – | – | – | – |
| CC(c1cc(Cl)cc(Cl)c1)N(C)c1ncc2c(N)nc(N)nc2n1 (centres unmarked) [MMV689437] | – | – | – | – | -3% | 9% | -12% | 3.6% | – |
| CNc1cc(C)nc(C2CN(C(=O)c3n[nH]c4ccccc34)CCO2)c1 (centres unmarked) [MMV689709] | – | – | – | – | -1.4% | 1.3% | 8% | 3.8% | – |
| COc1nc2ccc(Br)cc2cc1[C@@H](c1ccccc1)[C@@](O)(CCN(C)C)c1cccc2ccccc12 [MMV689758] | 19% | 10% | 9% | -1.4% | – | – | – | – | – |
